Active and inactive are the calls of the source.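 Rule for the calls: active = EGFP signal decrease of at least 30% at 10 µM or well 3 SD below plate mean, unless failing retest; inactive = the rest, including hits failing retest or dose response.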

In the assay the target is p/CIP-EGFP fusion (nuclear receptor coactivator 3, mouse) (UniProt Q05BA5). The experiment in a line: compounds lowering mouse p/CIP (NCOA3) protein levels – fluorescence, F442A cells, EGFP fusion, primary screen (AID 1984).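 Note: dose response run in MEF cells carrying p/CIP-EGFP rather than F442A.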 The following applies: 16 h.
Chain of p/CIP-EGFP fusion (nuclear receptor coactivator 3, mouse) (Q05BA5 1-1403): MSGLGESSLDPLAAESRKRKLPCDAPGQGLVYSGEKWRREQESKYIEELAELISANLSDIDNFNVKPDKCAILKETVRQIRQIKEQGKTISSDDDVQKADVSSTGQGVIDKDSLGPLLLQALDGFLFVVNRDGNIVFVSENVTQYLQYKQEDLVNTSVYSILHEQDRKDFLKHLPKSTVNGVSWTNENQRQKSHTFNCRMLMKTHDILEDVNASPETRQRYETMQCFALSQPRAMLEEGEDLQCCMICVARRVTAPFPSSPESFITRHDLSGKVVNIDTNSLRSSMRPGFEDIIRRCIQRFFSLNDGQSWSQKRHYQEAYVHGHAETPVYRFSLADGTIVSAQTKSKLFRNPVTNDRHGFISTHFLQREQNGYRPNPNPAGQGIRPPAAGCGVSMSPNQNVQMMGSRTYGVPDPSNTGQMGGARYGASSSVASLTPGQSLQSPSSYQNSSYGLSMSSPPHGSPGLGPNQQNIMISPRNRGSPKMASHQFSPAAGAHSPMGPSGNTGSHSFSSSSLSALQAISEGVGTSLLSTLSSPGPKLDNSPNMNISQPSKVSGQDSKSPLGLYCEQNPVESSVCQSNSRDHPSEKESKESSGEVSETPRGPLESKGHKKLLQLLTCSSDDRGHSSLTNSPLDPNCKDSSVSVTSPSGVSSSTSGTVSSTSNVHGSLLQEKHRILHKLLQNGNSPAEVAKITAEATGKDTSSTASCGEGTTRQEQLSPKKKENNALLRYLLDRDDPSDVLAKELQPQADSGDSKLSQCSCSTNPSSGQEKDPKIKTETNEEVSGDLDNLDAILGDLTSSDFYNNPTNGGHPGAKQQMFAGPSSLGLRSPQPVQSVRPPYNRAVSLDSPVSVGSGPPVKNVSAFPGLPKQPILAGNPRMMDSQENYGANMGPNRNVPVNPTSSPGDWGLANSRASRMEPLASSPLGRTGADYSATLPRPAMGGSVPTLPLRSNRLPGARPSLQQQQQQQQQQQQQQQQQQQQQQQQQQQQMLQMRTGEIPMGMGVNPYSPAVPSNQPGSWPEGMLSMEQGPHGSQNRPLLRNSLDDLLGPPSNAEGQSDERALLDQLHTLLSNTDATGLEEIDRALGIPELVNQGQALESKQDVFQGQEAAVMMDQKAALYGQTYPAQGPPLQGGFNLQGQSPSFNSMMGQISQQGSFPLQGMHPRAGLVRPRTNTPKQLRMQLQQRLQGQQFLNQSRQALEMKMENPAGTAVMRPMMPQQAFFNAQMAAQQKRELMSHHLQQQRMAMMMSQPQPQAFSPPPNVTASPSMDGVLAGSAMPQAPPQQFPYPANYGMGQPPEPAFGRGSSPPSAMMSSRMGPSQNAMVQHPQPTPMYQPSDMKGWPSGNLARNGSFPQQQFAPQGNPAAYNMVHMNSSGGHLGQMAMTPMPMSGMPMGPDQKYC
For orientation: IC50 means the concentration needed to halve the response being measured. As to `Cc1ccccc1NC1=C/C(=N\S(=O)(=O)c2cccs2)c2ccccc2C1=O`, the IC50 is 16.4 µM. Under `CC1CCN(S(=O)(=O)c2ccc3c(c2)C(=NO)c2cc(S(=O)(=O)N4CCC(C)CC4)ccc2-3)CC1` stands 2.3 µM; under `Nc1ccc2c(c1)C(=O)C(=O)c1ccccc1-2`, 14.6 µM. Under `COc1ccc(CS(=O)/C(Cl)=C(/Cl)C(=O)Nc2ccc(OC)nc2)cc1` (centres undefined) stands 16.6 µM. Under `CC(C)(C)c1cc[n+](C2=C([O-])c3ccccc3C(=O)/C2=N\S(=O)(=O)c2cccs2)cc1` stands 27 µM. Regarding `O=C1C(Nc2ccccc2)=C/C(=N/S(=O)(=O)c2cccs2)c2ccccc21`, the IC50 is 3.77 µM. As to `COc1ccc(NC(=O)/C(Cl)=C(/Cl)S(=O)Cc2ccc(Cl)cc2)cn1` (centres undefined), the IC50 entry is “inactive”.

As for `Cc1ccc(NC2=C/C(=N\S(=O)(=O)c3cccs3)c3ccccc3C2=O)c(C)c1`, the IC50 was 19.4 µM.

For the compound `Cc1oc2c(c1C(=O)NCc1cccnc1)C(=O)c1ccccc1C2=O`, the IC50 is 4.3 µM. Under `CCOC(=O)c1c(C)[nH]c2c1-c1ccccc1C(=O)C2=O` stands 3.43 µM. Turning to `O=C1C(Cl)=C(NCCN2CCCCC2)C(=O)c2ccccc21`, the IC50 is 14.8 µM. For `O=C1C(Nc2ccc(O)cc2)=C/C(=N/S(=O)(=O)c2cccs2)c2ccccc21`, the 50% inhibitory concentration (IC50) is 2.69 µM. Under `CCOC(=O)N=Nc1c2ccccc2c2nc3no[nH]c3nc12` stands 18.8 µM; under `CCCc1nc2c(=O)n(C)c(=O)nc-2n(C)n1`, 5 µM.

These data come from PubChem BioAssay AID1984 (Sanford-Burnham Center for Chemical Genomics, 2009).
